Data: the supplement of paper PMC10307832

What was measured:
Assay in all cases: relative viability (nuclei count vs DMSO), 5 days (fraction); higher = more cells survive
VE-821 + Decitabine = compound: CS(=O)(=O)c1ccc(-c2cnc(N)c(C(=O)Nc3ccccc3)n2)cc1 [VE-821] + Nc1ncn([C@H]2C[C@H](O)[C@@H](CO)O2)c(=O)n1 [Decitabine] (partner 2 µM)
In short: (§1)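 Relative viability is defined as nuclei in treated wells over nuclei in vehicle wells. Duplicate plates were run and medians reported. Lung cancer cell lines in 1536-well plates were dosed by pin tool one day after seeding, with one drug or with a fixed anchor-drug dose plus five library-drug doses (not always all listed) in √10 steps, and nuclei were counted after 5 days.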

Vismodegib + Dasatinib = compound: CS(=O)(=O)c1ccc(C(=O)Nc2ccc(Cl)c(-c3ccccn3)c2)c(Cl)c1 [Vismodegib] + Cc1nc(Nc2ncc(C(=O)Nc3c(C)cccc3Cl)s2)cc(N2CCN(CCO)CC2)n1 [Dasatinib] (partner 0.075 µM)
In short: as §1

Ruxolitinib + Trametinib = compound: N#CC[C@H](C1CCCC1)n1cc(-c2ncnc3[nH]ccc23)cn1 [Ruxolitinib] + CC(=O)Nc1cccc(-n2c(=O)n(C3CC3)c(=O)c3c(Nc4ccc(I)cc4F)n(C)c(=O)c(C)c32)c1 [Trametinib] (partner 0.02 µM)
In short: as §1

Ruxolitinib + Bortezomib = compound: N#CC[C@H](C1CCCC1)n1cc(-c2ncnc3[nH]ccc23)cn1 [Ruxolitinib] + CC(C)C[C@H](NC(=O)[C@H](Cc1ccccc1)NC(=O)c1cnccn1)B(O)O [Bortezomib] (partner 0.002 µM)
In short: as §1

Cell Line	relative viability (VE-821 + Decitabine; first compound 0.08 µM)	relative viability (VE-821 + Decitabine; first compound 0.253 µM)	relative viability (VE-821 + Decitabine; first compound 0.8 µM)	relative viability (VE-821 + Decitabine; first compound 2.53 µM)	relative viability (VE-821 + Decitabine; first compound 8 µM)	relative viability (Vismodegib + Dasatinib; first compound 0.08 µM)	relative viability (Vismodegib + Dasatinib; first compound 0.253 µM)	relative viability (Vismodegib + Dasatinib; first compound 0.8 µM)	relative viability (Vismodegib + Dasatinib; first compound 2.53 µM)	relative viability (Vismodegib + Dasatinib; first compound 8 µM)	relative viability (Ruxolitinib + Trametinib; first compound 0.08 µM)	relative viability (Ruxolitinib + Trametinib; first compound 0.253 µM)	relative viability (Ruxolitinib + Trametinib; first compound 0.8 µM)	relative viability (Ruxolitinib + Trametinib; first compound 2.53 µM)	relative viability (Ruxolitinib + Trametinib; first compound 8 µM)	relative viability (Ruxolitinib + Bortezomib; first compound 0.253 µM)	relative viability (Ruxolitinib + Bortezomib; first compound 0.8 µM)	relative viability (Ruxolitinib + Bortezomib; first compound 2.53 µM)	relative viability (Ruxolitinib + Bortezomib; first compound 8 µM)	relative viability (Ruxolitinib + Bortezomib; first compound 0.08 µM)
NCI-H520	0.516	0.526	0.583	0.545	0.379	0.191	0.202	0.188	0.166	0.203	0.87	0.663	0.823	0.609	0.574	0.323	0.859	0.323	0.364	
NCI-H1355	0.362	0.347	0.333	0.371	0.36	0.686	0.723	0.591	0.771	0.689	0.372	0.372	0.395	0.347	0.386	1.13	1.14	1.11	1.22	1.25
NCI-H1563						0.455	0.443	0.477	0.495	0.454						0.867	0.97	0.833	0.788	0.992
NCI-H1651	0.486	0.697	0.614	0.673	0.543	0.434	0.446	0.388	0.349	0.591	0.722	0.798	0.821	0.767	0.859	0.923	0.937	0.794	0.969	0.944
HCC-44	0.9	0.963	1.05	1.04	1.04						1.04	0.971	0.997	0.753	1.02	0.944	0.914	0.933	0.689	0.888
NCI-H1437	0.579	0.488	0.593	0.598	0.497	0.313	0.372	0.402	0.328	0.377	0.528	0.632	0.732	0.564	0.455	0.519	0.586	0.413	0.464	0.634
201T	0.887	0.878	0.887	0.918	0.659	0.646	0.52	0.481	0.569	0.463	0.753	0.803	0.927	0.907	0.922	1.26	1.21	1.34	1.3	1.14
LCLC-103H	0.749	0.702	0.778	0.77	0.729	0.579	0.517	0.471	0.4	0.458	0.728	0.707	0.731	0.595	0.639	1.17	1.04	1.15	0.951	0.922
NCI-H1915	0.284	0.262	0.312	0.266	0.318	0.346	0.296	0.295	0.266	0.326	0.315	0.311	0.325	0.153	0.253	0.955	0.91	0.961	0.905	0.956
NCI-H2085	0.539	0.528	0.778		0.538	0.26	0.244	0.22	0.217	0.213	0.639	0.548	0.624	0.483	0.575	1.06	1.26	0.904	0.822	0.964
NCI-H2228						0.593	0.529	0.46	0.452	0.454	0.229	0.861	0.62	0.24	0.144	1.11	1.14	0.957	1.09	1.27
EKVX	0.406	0.366	0.322	0.327	0.38	0.491	0.561	0.604	0.576	0.526		0.318	0.348	0.265	0.361	0.994	0.986	0.989	0.929	0.785
COR-L23	0.538	0.459	0.599	0.58	0.468	0.507	0.455	0.543	0.452	0.533	0.766	0.616	0.878	0.276	0.508	1.03	1.06	0.9	0.758	1.16
SK-MES-1	0.373	0.406	0.38	0.361	0.284	0.401	0.313	0.407	0.413	0.429	0.561	0.596	0.587	0.315	0.516					
A549	0.319	0.454	0.221	0.318	0.281															
NCI-H650	0.311	0.342	0.383	0.436	0.366	0.507	0.43	0.358	0.438	0.441	0.972	1.05	0.935	0.681	0.962	0.777	0.812	0.888	0.478	
NCI-H2087	0.381	0.286	0.309	0.363	0.275	0.98	0.769	0.812	0.94	0.69	0.173		0.22	0.263	0.27	0.853	0.985	0.821	0.701	0.849
EBC-1																0.49	0.597	0.42	0.361	0.592
NCI-H1648	0.658		0.54	0.498	0.471						0.548	0.517	0.62	0.416	0.74					
NCI-H1623						0.48	0.565	0.557	0.51	0.462										
NCI-H661	0.61	0.568	0.648	0.628	0.602	0.807	0.815	0.897	0.892	0.856	0.661	0.619	0.685	0.432	0.52	0.858	0.998	0.792	0.908	0.66

Cell Line	relative viability (VE-821 + Decitabine; first compound 0.08 µM)	relative viability (VE-821 + Decitabine; first compound 0.253 µM)	relative viability (VE-821 + Decitabine; first compound 0.8 µM)	relative viability (VE-821 + Decitabine; first compound 2.53 µM)	relative viability (VE-821 + Decitabine; first compound 8 µM)	relative viability (Vismodegib + Dasatinib; first compound 0.08 µM)	relative viability (Vismodegib + Dasatinib; first compound 0.253 µM)	relative viability (Vismodegib + Dasatinib; first compound 0.8 µM)	relative viability (Vismodegib + Dasatinib; first compound 2.53 µM)	relative viability (Vismodegib + Dasatinib; first compound 8 µM)	relative viability (Ruxolitinib + Trametinib; first compound 0.08 µM)	relative viability (Ruxolitinib + Trametinib; first compound 0.253 µM)	relative viability (Ruxolitinib + Trametinib; first compound 0.8 µM)	relative viability (Ruxolitinib + Trametinib; first compound 2.53 µM)	relative viability (Ruxolitinib + Trametinib; first compound 8 µM)	relative viability (Ruxolitinib + Bortezomib; first compound 0.253 µM)	relative viability (Ruxolitinib + Bortezomib; first compound 0.8 µM)	relative viability (Ruxolitinib + Bortezomib; first compound 2.53 µM)	relative viability (Ruxolitinib + Bortezomib; first compound 8 µM)	relative viability (Ruxolitinib + Bortezomib; first compound 0.08 µM)
NCI-H596	1.08	1.08	1.04	1.12	1.09	0.568	0.566	0.585	0.625	0.556	0.741	0.702	0.928	0.763	0.789	1.17	1.21		0.994	0.964
IA-LM																0.931	0.971	0.917	0.61	0.998
LC-2-ad	0.747	0.769	0.955	0.865	0.916	0.677	0.568	0.467	0.482	0.557	0.879	0.896	0.878	0.663	0.577	0.861	1.22	0.98	0.609	1.04
Calu-6																0.93	1.18	0.921	0.557	1.02
NCI-H2126	0.523	0.576	0.577	0.588	0.528	0.666	0.57	0.554	0.544	0.473	0.559	0.543	0.607	0.58	0.664	1.21	1.24	1.15	1.18	1.12
NCI-H647	0.401	0.5	0.385	0.385	0.235	0.222	0.202	0.177	0.18	0.194	0.607	0.437	0.523	0.182	0.48	0.942	1.23	0.783	0.885	0.867
NCI-H322M	0.693	0.639	0.752	0.793	0.553	0.244	0.25	0.243	0.245	0.255	0.523	0.628	0.514	0.609	0.893	1.31	1.26	1.52	1.64	1.18
NCI-H358	0.22	0.279	0.278	0.278	0.273	0.149	0.183	0.193	0.172	0.161	0.144	0.12	0.138	0.0972	0.148					
NCI-H2342	0.773	0.754	0.704	0.75	0.682	0.313	0.316	0.298	0.344	0.322	0.762	0.872	0.808	0.807	0.816					
LK-2	0.323	0.338	0.415	0.384	0.256	0.316	0.355	0.325	0.255	0.376	0.903	0.841	1.06	0.625	0.869					
NCI-H1993	0.607	0.557	0.596	0.568	0.486	0.499	0.763	0.562	0.565	0.554	0.433	0.734	0.573	0.49	0.443	1.02	1.23	1.26	1.29	0.893
NCI-H1299																0.997	1.02	0.932	0.984	1
ABC-1	1.13	0.974	0.809	0.903	0.989	0.584	0.415	0.527	0.527	0.582						0.303	0.325	0.284	0.285	0.324
NCI-H1703																0.38	0.346	0.338	0.245	0.412
NCI-H522	0.678	0.67	0.7	0.727	0.638	0.915	0.888	0.883	0.793	0.879	0.729	0.767	0.964	0.678	0.708					
NCI-H2170	0.515	0.469	0.487	0.434	0.295	0.542	0.623	0.627	0.62	0.639	0.868	0.895	0.879	0.867	0.933					
SW 900	0.471	0.456	0.472	0.469	0.386	0.669	0.543	0.585	0.763	0.536	0.597	0.742	1.09	0.614	0.902					
NCI-H1395	0.733	0.672	0.74	0.74	0.638	0.385	0.389	0.398	0.417	0.414	1.04	0.95	1.15	0.981	0.965					
NCI-H1793	0.55	0.468		0.637	0.461		0.408	0.374	0.416	0.365	0.406	0.42	0.466	0.338	0.364					
CAL-12T						0.322	0.224	0.403	0.586	0.482	0.341	0.375	0.376	0.241	0.31	0.856	1.1	0.979	0.535	
NCI-H1944	0.418	0.408	0.418	0.438	0.343	0.228	0.213	0.201	0.242	0.204	0.391	0.386	0.422	0.304	0.369					
